Measured values from patent US9656995B2, “Triazine derivative” (Carna Biosciences, Inc., priority 2013, dated 2017).
Entries after “also recorded” stand apart in the source; their conditions may differ.

Experiments:
[1] = test system: BCR signal in the Ramos cells; assay: Inhibition test on the change of Ramos intracellular calcium ion (anti-IgM BCR stimulation); assay type: cell-based; conditions: 0.003-1 μM, anti-IgM 2.0 μg/mL (FIG. 1)
Procedure: Inhibition Test on the Change of Ramos Intracellular Calcium Ion
The intracellular BTK inhibition by the compounds of the invention was verified by measuring the effects of the compounds of the invention on “anti-IgM antibody BCR stimulation-induced intracellular calcium influx”.
(Addition of Cell Suspension and Calcium Indicator)
One day before measurement, the Ramos cells were cultured after suspended again at a cell density of 1.0×10^6 cells/mL in a fresh growth medium (growth medium as used in Test Example 2), and the cells were recovered next day by centrifugation and washed with RPMI-1640 medium supplemented with 5% penicillin-streptomycin (Nacalai Tesque, Inc.) (Medium 1). These cells were suspended again at a cell density of 2.0×10^6 cells/mL in RPMI-1640 medium supplemented with 1% Ultra Low IgG FBS (GIBCO, #16250) and 5% penicillin-streptomycin (Nacalai Tesque, Inc.) (Medium 2), and thereafter each 100 μL of the cell suspension was added to each well of a poly lysine-coated microplate (BD BioCoat™, #356692), centrifuged (700 rpm, 3 minutes) and then incubated for 1 hour in a 5% CO2 incubator at 37° C. […]
Concentration of the Ramos intracellular calcium ion was measured as a fluorescent intensity of the calcium indicator Fluo-8NW using a microplate reader (SynergyH1) (Ex/Em=490/525 nm). […]

[2] = test system: collagen-induced arthritis; assay: Mouse collagen-induced arthritis model; assay type: in vivo; conditions: DBA/1J mice, 30 and 60 mg/kg orally twice a day
Procedure: Effect in Mouse Collagen-Induced Arthritis Model
Incomplete Freund's Adjuvant (Chondrex, Inc., #7002) supplemented with M. Tuberculosis H37 Ra, Desiccated (Beckton Dickinson and Company, #231141) at 2.5 mg/mL and Bovine Type II Collagen, 2 mg/mL Solution (Chondrex, Inc., #20022) were mixed in a 1:1 ratio to form an emulsion.
Three groups of DBA/1J mice (10 animals/group) (6-week old, male) received 0.1 mL per animal of the emulsion which was given in small portions on Day 0 and Day 21 by intradermal injection at the base of the tail, thereby accomplishing the immunization. The solvent or the test compound solution was given twice a day orally every day from Day 18 to Day 36 (test compound doses in the respective groups: 0 mg/kg, 30 mg/kg, 60 mg/kg). The treatment solution was prepared with the similar solvent in the similar manner as Test Example 4.
After the boost on Day 21, the state of the arthritis onset in each extremity was scored visually once in 2 or 3 days according to the criteria shown in Table 7. The scores of all four extremities were summed up on each mouse basis, and the mean value of 10 animals in each group was represented as an arthritis score (normal “0” up to maximum “16”).

[3] = test system: collagen-induced arthritis; assay: Rat collagen-induced arthritis model; assay type: in vivo; conditions: Lewis rat, 30 and 60 mg/kg orally twice a day
Procedure: Effect in Rat Collagen-Induced Arthritis Model
Incomplete Freund's Adjuvant (Sigma-Aldrich, #F5506) and Bovine Type II Collagen, 4 mg/mL Solution (Sichuan University, Lot.08H0497) were mixed in a 1:1 ratio to form an emulsion. Three groups of Lewis rat (10 animals/group) (5-6 week old, female) received 0.5 mL per animal of the emulsion which was given in small portions on Day 0 and Day 7 by intradermal injection at 3 sites, one site at the base of the tail (0.1 mL), and the rest of two sites (0.2 mL/site) were on the back of the rat near to the base of the tail, thereby accomplishing the immunization. The solvent or the test compound solution was given twice a day orally every day from Day 0 to Day 20 (test compound doses in the respective groups: 0 mg/kg, 30 mg/kg, 60 mg/kg). The treatment solution was prepared with the similar solvent in the similar manner as Test Example 4.
After the boost on Day 7, the state of the arthritis onset in each extremity was scored visually twice in a week according to the criteria shown in Table 8. The scores of all four extremities were summed up on each rat basis, and the mean value of 10 animals in each group was represented as an arthritis score (normal “0” up to maximum “16”).

[4] = test system: passive cutaneous anaphylaxis reaction (PCA reaction); assay: Passive cutaneous anaphylaxis reaction in mouse; assay type: in vivo; conditions: ICR mouse, oral, 3.0 mg/mL at 10 mL/kg, vs solvent group (FIG. 2)
Description: Test of Passive Cutaneous Anaphylaxis Reaction in Mouse
Since BTK plays an important role in FcεRI signal transmission in a mast cell, it was investigated whether a mast cell-involving immediate allergic reaction, namely, passive cutaneous anaphylaxis reaction (PCA reaction), which is an immediate allergic reaction involving mast cell, was inhibited by the administration of the compound.
(Preparation of Test Compound Solution)
DMSO, polyethylene glycol 400 (PEG#400, Nacalai Tesque, Inc. #28215-95), and 30% (w/v) hydroxypropyl-β-cyclodextrin aqueous solution (HP-β-CD, Sigma Corporation, #332607-500) were successively added to the test compound in this order, and mixed thoroughly to prepare a test compound solution (solvent composition: 5% solution of test compound in DMSO, 30% PEG#400, 65% HP-β-CD [30% (w/v) aqueous solution]). In the solvent control group, a DMSO solution was used instead of the solution of the test compound in DMSO.
An anti DNP-IgE monoclonal antibody (50 μg/mL, Santa Cruz Biotechnology, Inc., #sc-69695) was intradermally administered to both auricles in an ICR mouse under systemic anesthesia (10 μL/site). […] The absorbance of the resultant filtrate at 620 nm was measured, and used as an index of the dye leakage level. […]

BTK = target: T1, BTK (Homo sapiens, UniProt Q06187); assay: Intracellular BTK auto-phosphorylation activity inhibition test in Ramos cells; assay type: cell-based; conditions: test compound 0.3 μM, anti-IgM stimulation, pY223, read-out: BTK Phosphorylation inhibiting activity
T1 construct: endogenous in cells; host or cells: Ramos cells (2G6.4C10, ATCC No. CRL-1923)
T1 sequence (Q06187 whole entry): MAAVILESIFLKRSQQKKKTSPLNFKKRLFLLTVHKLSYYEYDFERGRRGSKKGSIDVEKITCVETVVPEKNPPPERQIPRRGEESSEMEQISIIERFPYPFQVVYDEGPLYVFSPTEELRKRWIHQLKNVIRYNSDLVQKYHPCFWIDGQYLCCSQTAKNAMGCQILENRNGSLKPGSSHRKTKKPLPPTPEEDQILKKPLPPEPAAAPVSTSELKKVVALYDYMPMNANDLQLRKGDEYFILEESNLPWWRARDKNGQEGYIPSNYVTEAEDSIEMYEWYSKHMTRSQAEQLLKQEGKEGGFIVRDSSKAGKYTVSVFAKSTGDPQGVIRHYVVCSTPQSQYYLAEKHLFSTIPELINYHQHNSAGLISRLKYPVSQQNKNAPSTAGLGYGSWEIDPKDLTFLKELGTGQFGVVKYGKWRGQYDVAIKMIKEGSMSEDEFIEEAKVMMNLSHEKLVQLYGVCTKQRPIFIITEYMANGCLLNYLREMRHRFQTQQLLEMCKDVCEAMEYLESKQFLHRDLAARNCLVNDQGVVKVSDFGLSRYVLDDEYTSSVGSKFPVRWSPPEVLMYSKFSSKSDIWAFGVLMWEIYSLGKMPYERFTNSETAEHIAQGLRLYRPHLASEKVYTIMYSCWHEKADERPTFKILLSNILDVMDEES
Procedure: Intracellular BTK Auto-Phosphorylation Activity Inhibition Test
(Culture of Cells to be Used)
Ramos cells (2G6.4C10, ATCC No. CRL-1923) were cultured in a T75 flask containing RPMI-1640 medium (GIBCO, #A10491-01) supplemented with 10% FBS (AusGene) and 5% penicillin-streptomycin (Nacalai Tesque, Inc.) (hereinafter referred to as growth medium) in a 5% CO2 incubator.
(Addition of the Compound to be Tested)
The cultured Ramos cells were diluted to a cell density of 7.5×10^6 cells/mL with a serum-free RPMI-1640 (hereinafter referred to as medium) and kept at 37° C. for 45 minutes. The cell suspension was dispensed in 1 mL aliquots into 2.0 mL tubes. […]
To the pellets obtained by recovering the cells via centrifugation, 100 μL of a lysis buffer [RIPA Buffer(×1) (Cell Signaling Technology, Inc.) supplemented with 1% Phosphatase inhibitor Cacktail 3 (Sigma Corporation, No. P0044), 1% Phosphatase inhibitor Cacktail (Nacalai Tesque, Inc., No. 07575) and 1 mM phenylmethylsulfonyl fluoride (PMSF)] was added and stirred gently and then allowed to stand for 10 minutes. The supernatant was recovered by centrifugation (15,000 rpm, 15 minutes) and the protein level was quantified. […]

Compound	Inhibition of change of intracellular calcium ion induced by BCR-stimulation [1]	Toxic signs such as weight loss ([2]; Day 18 to Day 36)	Inhibition of onset of arthritis (arthritis score) ([2]; Day 18 to Day 36 (FIG. 3))	Toxic signs such as weight loss ([3]; Day 0 to Day 20)	Inhibition of onset of arthritis (arthritis score) ([3]; Day 0 to Day 20 (FIG. 4))	Inhibition of leakage of the dye into the auricles (PCA reaction) [4]	inhibition at 0.3 µM (BTK) [%]
Cn1cc(Nc2nc(N)nc(-c3cccc(-n4ccc5cc(C6CC6)cc(F)c5c4=O)c3CO)n2)cn1 [Example 1, 2-(3-{4-Amino-6-[(1-methyl-1H-pyrazol-4-yl)amino]-1,3,5-triazin-2-yl}-2-(hydroxymethyl)phenyl)-6-cyclopropyl-8-fluoroisoquinolin-1(2H)-one]	in a concentration-dependent manner from a low concentration; also recorded: inhibits the BCR signal in the Ramos cells in a concentration dependent manner	able to circumvent any toxic signs such as weight loss	inhibited the onset of the arthritis in a dose dependent manner	able to circumvent any toxic signs such as weight loss	inhibited the onset of the arthritis in a dose dependent manner	inhibited the leakage of the dye in blood into the auricles significantly	≥ 70
Cn1cc(Nc2nc(N)nc(-c3cccc(-n4ccc5cc(C6CC6)cc(F)c5c4=O)c3CO)n2)cc1C#N [Example 2, 4-({4-Amino-6-[3-(6-cyclopropyl-8-fluoro-1-oxoisoquinolin-2(1H)-yl)-2-(hydroxymethyl)phenyl]-1,3,5-triazin-2-yl}amino)-1-methyl-1H-pyrrole-2-carbonitrile]							≥ 70
